# Assay results: patent publication US6348487B1, “2-phenyl benzimidazole derivatives as MCP-1 antagonists” (Millennium Pharmaceuticals, Inc., priority 1996, dated 2002)
# Where “and” joins values, the source holds several entries; their conditions need not be identical. Identical values can stand only once.
# Key:
# [1] = target: T1, MCP-1 receptor (Homo sapiens, UniProt P41597); experiment: MCP-1 Receptor Binding Assay (I125-labeled MCP-1, THP-1 cell membranes); settings: THP-1 membranes, 0.2 nM I125-labeled MCP-1
# T1 construct: host or cells: THP-1 (human monocytic cell line), membrane preparation
# T1 sequence (P41597 1-360 isoform P41597-2): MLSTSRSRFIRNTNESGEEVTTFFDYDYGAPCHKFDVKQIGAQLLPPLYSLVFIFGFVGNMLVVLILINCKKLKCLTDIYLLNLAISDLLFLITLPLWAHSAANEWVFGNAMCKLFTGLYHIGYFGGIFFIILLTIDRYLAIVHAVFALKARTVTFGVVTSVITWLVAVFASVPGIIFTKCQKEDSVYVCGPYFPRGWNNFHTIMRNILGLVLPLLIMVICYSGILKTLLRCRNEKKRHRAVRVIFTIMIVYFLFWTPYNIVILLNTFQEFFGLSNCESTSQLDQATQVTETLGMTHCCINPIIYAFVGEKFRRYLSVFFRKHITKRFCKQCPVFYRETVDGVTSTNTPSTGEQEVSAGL
# Method: Membranes used in the MCP-1 binding assay were prepared from THP-1 cells (human monocytic cell line source—American Type Culture Collection, Tumor Immunology Bank #202, Rockville, Md., accession no. ATCC TIB 202). Cells were harvested by centrifugation and washed twice in ice-cold PBS (phosphate-buffered saline) and the cell pellet was frozen at −80° C. in some cases. Cells were resuspended in ice-cold lysis buffer 5 mM HEPES (2-(4N-[2-hydroxyethyl]piperazin-1-yl)-N′-(2-ethanesulfonic acid), pH 7.5, 2 mM EDTA (ethylenediaminetetraacetic acid), 5 μg/mL each leupeptin, aprotinin, chymostatin (protease inhibitors), and 100 μg/mL PMSF (phenylmethane sulfonyl fluoride—also a protease inhibitor)) at a concentration of 5×10^7 cells/mL. The cell suspension was dounced 10-15 times using the B pestle (small pestle of tissue grinder—clearance is 0.07 mm; source—Fisher Scientific) on ice. Nuclei and debris were removed by centrifugation at 500-1000×g for 10 minutes at 4° C. The supernatant was transferred to a fresh tube and centrifuged at 25,000×g for 30 minutes at 4° C. The supernatant was aspirated and the pellet was resuspended in freezing buffer (10 mM HEPES, pH 7.5, 300 mM sucrose, 1 μg/mL each leupeptin, aprotinin, chymostatin, and 10 μg/mL PMSF) using a minihomogenizer until all clumps were resolved. Membranes were aliquoted and frozen at minus 70-85° C. until needed. Typical binding assays used 10-20 μg/well of total membrane protein as determined with a standard protein assay (e.g. Bradford protein assay, BioRad, Richmond, Calif.).
# For binding, 10-20 μg of total membrane protein were included in the binding reaction along with 0.2 nM I^125-labeled MCP-1 (Amersham, Arlington Heights, Ill.) with or without unlabeled competitor MCP-1 (Peprotech, Rocky Hill, N.J.) (at 500 nM). Binding reactions were performed in a final volume of 100 μl in a binding buffer containing 10 mM HEPES, pH 7.2, 1 mM CaCl2, 5 mM MgCl2, 0.5% BSA (bovine serum albumin). After 30-60 minutes at room temperature, the binding reactions were filtered through GF/C filters (Whatman glass fiber filters, Type C) or GF/B unifilter plates (Packard) which had been pre-soaked with 0.3% polyethyleneimine and washed twice with binding buffer containing 0.5 M NaCl. Filters were dried and counted in a Beta-Plate scintillation counter using standard scintillation fluid. Final concentration of compound in the binding assay ranged from 0.05-100 μM. Compounds were dissolved in DMSO (dimethyl sulfoxide). Final concentrations of DMSO in the binding were kept constant at 0.5%.
# IC50s were calculated using a non-linear 3-parameter logistic curve fit. IC50 means the concentration at which 50% inhibition is achieved. Negative controls contained the same amount of DMSO vehicle as used in wells containing compound. Positive control contained 250-500 nM cold competitor MCP-1 in DMSO vehicle. Non-specific binding (the level of bound ^125I-labeled MCP-1 in the presence of […] unlabeled MCP-1) was subtracted from all data prior to analysis.
# [2] = test system: T lymphocyte blast cells (CD3-Blasts); experiment: CD3-Blast Chemotaxis Assay (transendothelial migration to MCP-1); assay type: cell-based, human; settings: 10 μM compound; MCP-1 about 10 nM; ECV304 endothelial coated Transwells
# From the text: Recombinant human MCP-1 was obtained from Peprotech (Rockey Hill, N.J.). T lymphocyte blast cells (CD3-Blasts) were generated by standard protocols (Coligan, J. E., A. M. Kruisbeek, D. H. Macgulies, E. M. Shevach, and W. Strober, editors. 1992. Current Protocols in Immunology. John Wiley and Sons, New York 7.1.2, 7.10.1-7.10. 10). Briefly, human peripheral blood mononuclear cells (PBMC) were isolated from heparinized venous blood by Percoll density gradient centrifugation (d=1.088) at room temperature. RBCs were removed by hypotonic lysis or dextran sedimentation. Blast cells were generated by incubating 2×10^6 PBMC in 24-well tissue culture plates that were coated with 2.5 μg of an anti-CD3 monoclonal antibody (identified as TR66, a gift from Dr. A. Lanzivecchia; similar monoclonal antibody is HIT3a, from Parmingen #30111A) at 37° C. for 48 to 72 hours, and then transferring 12 wells to T25 or T75 flasks with RPMI (Roswell Park Memorial Institute 1640, a growth cell medium available from Gibco/RBL, Inc., New York)+10% FCS (fetal calf serum)+50 units/ml IL-2. The cells are expanded and cultured for up to 3 weeks. CD3-Blast chemotaxis was assessed no sooner than 3 to 4 days after transfer to the IL-2 containing medium using a modification of a transendothelial migration assay (Carr. M. W., S. J. Roth, B. Luther, S. S. Rose, and T. A. Springer. 1994. Monocyte chemoattractant protein 1 acts as a T-lymphocyte chemoattractant. Proc. Natl. Acad. Sci. USA 91:3652-6). The endothelial cells used for this assay were the endothelial cell line ECV304. (ECV304 was from the European Collection of Animal Cell Cultures, Porton Downs, UK, assession #92091712). Endothelial cells were cultured on 6.5 mm diameter Transwell culture inserts (Costar) with a […] pore size. […] Background migration was determined by counting cells that migrated in the absence of MCP-1 in the lower chamber. […] The percent inhibition by compounds of directed migration was determined by the following formula: [drawing 32] […]
Molecule,IC50 [1] [µM],also measured
COc1ccc2nc(-c3ccc(N(C)CCN4CCCCC4)cc3)[nH]c2c1.Cl.Cl,,melting point: 273 °C
CN(CCN1CCCCC1)c1ccc(-c2nc3ccccc3[nH]2)cc1,10.9,
CN(CCN1CCCCC1)c1ccc(-c2nc3ccc(C(F)(F)F)cc3[nH]2)cc1,15.5,
CN(CCN1CCCCC1)c1ccc(-c2nc3ccc(C(C)(C)C)cc3[nH]2)cc1,3.1,
CN(CCN1CCCCC1)c1ccc(-c2nc3ccc(F)cc3[nH]2)cc1,8.6,
CN(CCN1CCCCC1)c1ccc(-c2nc3cc4ccccc4cc3[nH]2)cc1,12.1,
CN(CCN1CCCCC1)c1ccc(-c2nc3cc4c(cc3[nH]2)Cc2ccccc2-4)cc1,20.7,
CCCCc1ccc2nc(-c3ccc(N(C)CCN4CCCCC4)cc3)[nH]c2c1,11.5,
CN(CCN1CCCCC1)c1ccc(-c2nc3ccc(-c4ccccc4)cc3[nH]2)cc1,15.1,
CN(CCN1CCCCC1)c1ccc(-c2nc3cc(Sc4ccc(Cl)c(Cl)c4)ccc3[nH]2)cc1,5.1,
CN(CCN1CCCCC1)c1ccc(-c2nc3ccc(C(=O)c4ccccc4)cc3[nH]2)cc1,11.3,
CN(CCN1CCCCC1)c1ccc(-c2nc3ccc(OCc4ccccc4)cc3[nH]2)cc1,15.4,
c1ccc(-c2ccc3nc(-c4ccc(NCCN5CCCCC5)cc4)[nH]c3c2)cc1,11.9,
CN(CCN1CCCCC1)c1ccc(-c2nc3ccc(Oc4ccc(Cl)c(Cl)c4)cc3[nH]2)cc1,6.4,
CN(CCN1CCCCC1)Cc1ccc(-c2nc3cc(Cl)c(Cl)cc3[nH]2)cc1,3.2,
CN(CCN1CCCCC1)c1ccc(-c2nc3ccc(NCCCCCc4ccccc4)cc3[nH]2)cc1,6.7,
CN(CCN1CCCCC1)c1ccc(-c2cc3cc(Cl)ccc3[nH]2)cc1,9.9,

Molecule,IC50 [1] [µM],also measured
CN(CCN1CCCCC1)c1ccc(-c2nc3ccc(Cc4ccccc4)cc3[nH]2)cc1,4.3,
CCN(CC)CCN(C)c1ccc(-c2nc3cc(Cl)c(Cl)cc3[nH]2)cc1,6.8,
"CN(CCN1CCCCC1)c1ccc(-c2nc3cc(Cl)c(Cl)cc3[nH]2)cc1 [Example 2, N-[4-(5 ,6-dichloro-1H-benzimidazol-2-yl)-phenyl]-N-methyl-N-(2-piperidin-1-yl-ethyl)-amine]",,% Inhibition of Chemotaxis at 10 μM [2]: 100% and 102%; melting point: 165 to 167 °C
"CN(CCN1CCCCC1)c1ccc(-c2nc3ccc(Cl)cc3[nH]2)cc1 [Example 4, [4-[6-Chloro-1H-benzoimidazol-2-yl)-phenyl]-methyl-(2-piperidin-1-yl-ethyl)-amine]",,melting point: 196 °C
"CN(CCN1CCCCC1)c1ccc(-c2nc3cc(Cl)c(F)cc3[nH]2)cc1 [Example 5, [4-(5-Chloro-6-fluoro-1H-benzoimidazol-2-yl)-phenyl]-methyl-(2-piperidin-1-yl-ethyl)-amine]",,melting point: 167 to 168 °C
"Cc1ccc2nc(-c3ccc(N(C)CCN4CCCCC4)cc3)[nH]c2c1 [Example 6, Methyl-[4-(6-methyl-1H-benzoimidazol-2-yl)-phenyl]-(2-piperidin-1-yl-ethyl)-amine]",,melting point: 165 °C
"Cc1cc2nc(-c3ccc(N(C)CCN4CCCCC4)cc3)[nH]c2cc1C [Example 7, [4-(5,6-Dimethyl-1H-benzoimidazol-2-yl)-phenyl]-methyl-(2-piperidin-1-yl-ethyl)-amine]",,melting point: 194 to 196 °C
"CN(CCN1CCCCC1)c1ccc(-c2nc3ccc(Cl)c(Cl)c3[nH]2)cc1 [Example 8, [4-(6,7-Dichloro-1H-benzoimidazol-2-yl)-phenyl]-methyl-(2-piperidin-1-yl-ethyl)-amine]",,melting point: 164 °C
"CN(CCN1CCCCC1)c1ccc(C2=Nc3ccc(Cl)cc3C2)cc1 [Example 10, [4-(5-Chloro-3H-indol-2-yl)-phenyl]-methyl-(2-piperidin-1-yl-ethyl)-amine]",,melting point: 192 °C
CCN(CC)CCN(CCN(CC)CC)c1ccc(-c2nc3cc(Cl)c(Cl)cc3[nH]2)cc1 [drawing 8],11.1,
CN(CCN1CCCCC1)c1ccc(-c2nc3cc(Cl)c(Cl)cc3[nH]2)cc1 [drawing 9],13.4,
CN(CCN1CCCCC1)c1ccc(-c2nc3ccc(Cl)cc3[nH]2)cc1 [drawing 11],5.9,
CN(CCN1CCCCC1)c1ccc(-c2nc3cc(Cl)c(F)cc3[nH]2)cc1 [drawing 12],9.6,
Cc1ccc2nc(-c3ccc(N(C)CCN4CCCCC4)cc3)[nH]c2c1 [drawing 13],8.7,
Cc1cc2nc(-c3ccc(N(C)CCN4CCCCC4)cc3)[nH]c2cc1C [drawing 14],6.3,
"N-[4-(5,6-dichloro-1H-benzimidazol-2-yl)-phenyl]-N-(2-diethylaminoethyl)-N-methyl, N-diethyl-ethane-1,2-diamine [Example 3]",,% Inhibition of Chemotaxis at 10 μM [2]: 95% and 102%
